Measured values from patent US20240336658A1, “CYCLIC PEPTIDE AND PREPARATION METHOD AND USE THEREOF” (HANGZHOU HUIBO SCIENCE AND TECHNOLOGY CO., LTD, priority 2021, published 2024).

Test system: full-thickness skin defect wound surfaces
Assay: Effect of Hst1-MAD cyclic peptide on wound repair in mice (Example 22): healing rate, histology, immunohistochemistry, immunofluorescence double staining, Western Blot
Type: in vivo, C57 BL/6 mice
Method: […]. 36 healthy male special pathogen-free grade C57 BL/6 mice (purchased from Guangdong Experimental Animal Center) of 6-8 weeks old and weighing 22-28 g. They were intraperitoneally injected with 5 ml/kg of 1% pentobarbital sodium for anesthesia. After the mice had no corneal reflex, the hair on their backs was carefully removed and disinfected with alcohol. […] full-thickness skin defect wound surfaces were prepared on the back of each mouse by using a circular skin punch. […]. Each wound surface was added with 0.5 ml of four drugs respectively, and administration was conducted every day until the wound surfaces of the experimental groups healed. Photographs were taken on days 0, 3, 5, and 10 after surgery, and wound tissues were sampled on days 3, 5, and 10 for subsequent pathological staining.
was observed and photographed with a digital camera (see FIG. 19), and the wound healing rate was calculated (see FIG. 20). Wound healing rate=(wound area immediately after injury−unhealed wound area at each time point)÷wound area immediately after injury×100%.
The wound specimens were fixed in 4% paraformaldehyde for 48 hours, rinsed with tap water for 10 minutes, dehydrated with graded ethanol, permeabilized with xylene, and embedded in paraffin to prepare 4 μm thick sections. Some sections were taken and subjected to HE staining to detect an epidermal thickness and subjected to Masson staining to detect newly grown collagen. Through hematoxylin-cosin staining (HE), the effects of the four groups of drugs on newly grown epidermal at the wound surface on day 10 were evaluated (FIGS. 21 and 22). Through Masson staining, the effects of the four groups of drugs on newly grown collagen at the wound surface on days 5 and 10 were evaluated (FIGS. 23 and 24). 5 sections were taken from each mouse, and 5 fields of view were selected for each section. Data analysis was performed using the software Image-pro Plus.
and rehydrated, subjected to antigen thermal repair with a 0.1 mol/L citric acid buffer (with a pH value of 6.0) for 20 minutes, treated with hydrogen peroxide with a volume fraction of 10% for inactivation of endogenous peroxidase for 10 minutes, and blocked with 50 g/L of bovine serum albumin for 2 hours. It was added with a rabbit anti-mouse CD31 primary antibody (with a dilution ratio of 1:300) and a mouse anti-VEGF (with a dilution ratio of 1:100), incubated overnight at 4° C., and washed with PBS. It was rewarmed for 1 hour, washed with PBS, added dropwise with ready-to-use biotinylated goat anti-mouse and goat anti-rabbit IgG secondary antibodies, incubated for 2 hours, and washed with PBS. It was subjected to DAB development, hematoxylin counterstaining. gradient ethanol dehydration, xylene permeabilization, and resin blocking. 5 sections were taken from each mouse, and 5 fields of view were selected for each section. The sections were observed under a 400× inverted fluorescence microscope, and analyzed for the number of CD31-positive blood vessels (see FIG. 25) and VEGF expression amounts (see FIG. 26) by using Image-pro Plus software.
The specific steps were: the previous steps were the same as those of 1.3.3, and they were incubated with the antibodies MHCII (orb101661; 1:500; Biorbyt Biotechnology Co., Ltd., Wuhan, CN), CD11c (97585; 1:200; Cell Signaling Technology Inc., Boston, MA), CD68 (GB11067; 1:300; Servicebio Inc.), CD80 (GB11034; 1:300; Servicebio Inc.), CD206 (GB11062; 1:500; Servicebio Inc.), claudin1 (37-4900; 1:100; Thermo Fisher Scientific Co., Ltd, Shanghai, CN) and claudin2 (32-5600; 1:200; Thermo Fisher Scientific Co., Ltd.) at 4° C. overnight. The fluorescent-labeled secondary antibodies were incubated at room temperature for 1 h, followed by 4′,6-diamidino-2′-phenylindole (DAPI) (G1012; Google Biotechnology Co., Ltd., Wuhan, CN). The stained sections were photographed by using a fluorescence microscope (Nikon Eclipse TI-SR. Tokyo, Japan). […]

[1] = day 3 after surgery, Western Blot, 10 μM Histatin1
[2] = day 10, immunofluorescence, 1 μM Click-Hst1-MAD, 1 μM Hst1-MAD, 10 μM Histatin1

Linear Hst1: linear peptide Hst1 (Histatin1), amino acid sequence SEQ ID NO.1
number of M2 macrophages (CD68+ and CD206+) (day 3, 1 μM Click-Hst1-MAD, 10 μM Hst1, M±SD): 12.67±7.34
expression level of HO-1 relative to the control group [1]: 1.80 times
expression level of Nrf2 relative to the control group [1]: 1.27 times
expression level of NQO1 relative to the control group (day 3 after surgery, Western Blot, 10 μM Hst1): 2.08 times
number of dendritic cells (MHCII+ and CD11c+) relative to the control group (day 3 after surgery, 10 μM Hst1, 1 μM Click-Hst1-MAD): 1.75 times
VEGF expression amount (day 5, 1 μM Click-Hst1-MAD, 10 μM Histatin1, 1 μM Hst1-MAD compared with each other): comparable
expression levels of the dermal collagen (day 5, 1 μM Hst1-MAD and 10 μM Histatin1 compared with each other): equivalent
Claudin1 expression intensity [2]: equivalent expression level of Claudin1
Claudin2 expression intensity [2]: no obvious effect on promoting Claudin2 expression
VEGF expression amount (day 10, 1 μM Click-Hst1-MAD, 10 μM Histatin1): higher
number of dendritic cells (MHCII+ and CD11c+) (days 3 and 5 evaluated, 1 μM Click-Hst1-MAD, 1 μM Hst1-MAD, 10 μM Histatin1): significantly higher than that in the Control group
number of M1 macrophages (CD68+ and CD80+) (days 3 and 5 evaluated, 1 μM Hst1-MAD, 10 μM Histatin1): lower than that in the Control group
number of CD31-positive blood vessels (days 5 and 10, immunohistochemistry, 1 μM Click-Hst1-MAD, 1 μM Hst1-MAD, 10 μM Histatin1): significantly higher than that in the Control group
